Experimental data taken from US9914732B2, “Diazabicyclo[4.3.1]decane derivatives for treatment of psychiatric disorders” (Max-Planck-Gesellschaft zur Forderung der Wissenschaften …, priority 2014, dated 2018).

Key:
FKBP51 = biological target: T1, FKBP51 (Homo sapiens, UniProt Q13451); test: Fluorescence polarization (FP) assay, binding to the FK506-binding domain of FKBP51; details: FK506-binding domain of FKBP51 (FKBP51FK1), competition with fluorescent ligand 2b
T1 sequence (Q13451 42-130 limits assumed): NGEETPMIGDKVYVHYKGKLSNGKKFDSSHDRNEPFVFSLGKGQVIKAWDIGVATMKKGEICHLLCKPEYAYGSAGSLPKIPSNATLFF
Method in brief: (§1)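 Competitive FP with fluorescent ligand 2b at 20 nM (2× concentration) and FK1 domain at 280 nM (FKBP51) or 400 nM (FKBP52) in 20 mM HEPES pH 8, 0.01% Triton-X100. Anisotropy read after 30 min at room temperature (ex 485, em 535 nm), in duplicate; IC50 by four-parameter fit, Ki via Wang competitive equation.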

FKBP52 = biological target: T2, FKBP52 (Homo sapiens, UniProt Q02790); test: Fluorescence polarization (FP) assay, binding to the FK506-binding domain of FKBP52; details: FK506-binding domain of FKBP52 (FKBP52FK1), competition with fluorescent ligand 2b
T2 sequence (Q02790 50-138 limits assumed): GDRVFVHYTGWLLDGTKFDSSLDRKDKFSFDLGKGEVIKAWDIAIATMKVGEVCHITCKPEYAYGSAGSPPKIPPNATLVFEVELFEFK
Method in brief: as §1

Structure (SMILES)	Ki (FKBP51) [nM]	Ki (FKBP52) [nM]
C=CC1CN(Cc2c[nH]nn2)C(=O)C2CCCC1N2S(=O)(=O)c1cc(Cl)cc(Cl)c1 (stereo in doubt) [Compound J13, (1S,5R,6R)-3-((1H-1,2,3-triazol-4-yl)methyl)-10-((3,5-dichlorophenyl)sulfonyl)-5-vinyl-3,10-diazabicyclo[4.3.1]decan-2-one]	≤ 100	≤ 100
C=C[C@@H]1CN(Cc2ccncn2)C(=O)[C@@H]2CCC[C@H]1N2S(=O)(=O)c1cc(Cl)cc(Cl)c1 [Compound J15, (1S,5R,6R)-10-((3,5-dichlorophenyl)sulfonyl)-3-(pyrimidin-4-ylmethyl)-5-vinyl-3,10-diazabicyclo[4.3.1]decan-2-one]	100 to 500	100 to 500
C=CC1CN(Cc2ccccn2)C(=O)C2CCCC1N2S(=O)(=O)c1cccc(C(N)=O)c1 (stereo in doubt) [Compound K17, 3-(((1S,5R,6R)-2-oxo-3-(pyridin-2-ylmethyl)-5-vinyl-3,10-diazabicyclo[4.3.1]decan-10-yl)sulfonyl)benzamide]	100 to 500	100 to 500
COC[C@H]1CN(Cc2cnn[nH]2)C(=O)[C@@H]2CCC[C@H]1N2S(=O)(=O)c1cc(Br)cc(C(N)=O)c1 [Compound N20, 3-(((1S,5S,6R)-3-((1H-1,2,3-triazol-5-yl)methyl)-5-(methoxymethyl)-2-oxo-3,10-diazabicyclo[4.3.1]decan-10-yl)sulfonyl)-5-bromobenzamide]	≤ 100	≤ 100
CO[C@H]1CN(C)C(=O)[C@@H]2CCC[C@H]1N2S(=O)(=O)c1cc(Cl)cc(Cl)c1 [Compound H1.3, (1S,5S,6R)-10-((3,5-dichlorophenyl)sulfonyl)-5-methoxy-3-methyl-3,10-diazabicyclo[4.3.1]decan-2-one]	500 to 1000	500 to 1000
C=C[C@@H]1CN(Cc2ccco2)C(=O)[C@@H]2CCC[C@H]1N2S(=O)(=O)c1cc(Cl)cc(Cl)c1 [Compound J17, (1S,5R,6R)-10-((3,5-dichlorophenyl)sulfonyl)-3-(furan-2-ylmethyl)-5-vinyl-3,10-diazabicyclo[4.3.1]decan-2-one]	1000 to 5000	1000 to 5000
C#CCN1C[C@H](COC)[C@H]2CCC[C@@H](C1=O)N2S(=O)(=O)c1cccnc1 [Compound N13, (1S,5S,6R)-5-(methoxymethyl)-3-(prop-2-yn-1-yl)-10-(pyridin-3-ylsulfonyl)-3, 10-diazabicyclo[4.3.1]decan-2-one]	500 to 1000	500 to 1000
C=CC1CN(Cc2ccccn2)C(=O)C2CCCC1N2S(=O)(=O)c1ccc(NC(C)=O)c(Br)c1 (stereo in doubt) [Compound K20, N-(2-bromo-4-(((1S,5R,6R)-2-oxo-3-(pyridin-2-ylmethyl)-5-vinyl-3,10-diazabicyclo[4.3.1]decan-10-yl)sulfonyl)phenyl)acetamide]	100 to 500	100 to 500
C#CCN1C[C@H](COC)[C@H]2CCC[C@@H](C1=O)N2S(=O)(=O)c1ccc(-c2ccccc2)nc1 [Compound N14, (1S,5S,6R)-5-(methoxymethyl)-10-((6-phenylpyridin-3-yl)sulfonyl)-3-(prop-2-yn-1-yl)-3,10-diazabicyclo[4.3.1]decan-2-one]	100 to 500	100 to 500
COc1ccc(OCCN2CCC3CCCC(C2=O)N3S(=O)(=O)c2cc(Cl)c(O)c(Cl)c2)cc1OC (centres unmarked) [Ref. 3, reference compound]	1000 to 5000	1000 to 5000
C=CC1CN(Cc2ccccn2)C(=O)C2CCCC1N2S(=O)(=O)c1cccc(Br)c1 (stereo in doubt) [Compound K5, (1S,5R,6R)-10-((3-bromophenyl)sulfonyl)-3-(pyridin-2-ylmethyl)-5-vinyl-3,10-diazabicyclo[4.3.1]decan-2-one]	≤ 100	≤ 100
C=CC1CN(CCCOC)C(=O)C2CCCC1N2S(=O)(=O)c1cc(Cl)cc(Cl)c1 (stereo in doubt) [Compound J2, (1S,5R,6R)-10-((3,5-dichlorophenyl)sulfonyl)-3-(3-methoxypropyl)-5-vinyl-3,10-diazabicyclo[4.3.1]decan-2-one]	500 to 1000	500 to 1000
COC[C@H]1CN(Cc2cnn[nH]2)C(=O)[C@@H]2CCC[C@H]1N2S(=O)(=O)c1cc(Br)cc(Br)c1 [Compound N18, (1S,5S,6R)-3-((1H-1,2,3-triazol-5-yl)methyl)-10-((3,5-dibromophenyl)sulfonyl)-5-(methoxymethyl)-3,10-diazabicyclo[4.3.1]decan-2-one]	≤ 100	≤ 100
C=C[C@@H]1CN(Cc2ccccn2)C(=O)[C@@H]2CCC[C@H]1N2S(=O)(=O)c1cc(Cl)c(NC(C)=O)c(Cl)c1 [Compound K22, N-(2,6-dichloro-4-(((1S,5R,6R)-2-oxo-3-(pyridin-2-ylmethyl)-5-vinyl-3,10-diazabicyclo[4.3.1]decan-10-yl)sulfonyl)phenyl)acetamide]	≤ 100	≤ 100
COC[C@H]1CN(Cc2cnn[nH]2)C(=O)[C@@H]2CCC[C@H]1N2S(=O)(=O)c1ccc(-c2ccccc2)nc1 [Compound N26, (1S,5S,6R)-3-((1H-1,2,3-triazol-5-yl)methyl)-5-(methoxymethyl)-10-((6-phenylpyridin-3-yl)sulfonyl)-3,10-diazabicyclo[4.3.1]decan-2-one]	≤ 100	≤ 100
C#CCN1C[C@H](COC)[C@H]2CCC[C@@H](C1=O)N2S(=O)(=O)c1cc(Br)cc(Br)c1 [Compound N3, (1S,5S,6R)-10-((3,5-dibromophenyl)sulfonyl)-5-(methoxymethyl)-3-(prop-2-yn-1-yl)-3,10-diazabicyclo[4.3.1]decan-2-one]	100 to 500	100 to 500
COc1ccc(OCCN2C[C@H](C[C@H](C)O)C3CCCC(C2=O)N3S(=O)(=O)c2cc(Cl)cc(Cl)c2)cc1OC (single isomer, unassigned) [Compound D4]	≤ 100	≤ 100
COc1ccc(OCCN2CCC3CCCC(C2=O)N3S(=O)(=O)c2cc(Cl)cc(Cl)c2)cc1OC (centres unmarked) [Ref. 1, reference compound]	1000 to 5000	1000 to 5000
C#CCN1C[C@H](COC)[C@H]2CCC[C@@H](C1=O)N2S(=O)(=O)c1cccc(C(=O)OC)c1 [Compound N10, methyl 3-(((1S,5S,6R)-5-(methoxymethyl)-2-oxo-3-(prop-2-yn-1-yl)-3,10-diazabicyclo[4.3.1]decan-10-yl)sulfonyl)benzoate]	100 to 500	100 to 500
COCCCCN1C[C@@H](CO)[C@H]2CCC[C@@H](C1=O)N2S(=O)(=O)c1cc(Cl)cc(Cl)c1 [Compound J7, (1S,5R,6R)-10-((3,5-dichlorophenyl)sulfonyl)-5-(hydroxymethyl)-3-(4-methoxybutyl)-3,10-diazabicyclo[4.3.1]decan-2-one]	500 to 1000	500 to 1000
C=CC1CN(CCCOCc2ccccc2)C(=O)C2CCCC1N2S(=O)(=O)c1cc(Cl)cc(Cl)c1 (stereo in doubt) [Compound J1, (1S,5R,6R)-3-(3-(benzyloxy)propyl)-10-((3,5-dichlorophenyl)sulfonyl)-5-vinyl-3,10-diazabicyclo[4.3.1]decan-2-one]	100 to 500	100 to 500
COc1ccc(OCCN2C[C@H](C(C)O)C3CCCC(C2=O)N3S(=O)(=O)c2cc(Cl)cc(Cl)c2)cc1OC (stereo in doubt) [Compound D7, (1S,5S,6R)-10-((3,5-dichlorophenyl)sulfonyl)-3-(2-(3,4-dimethoxyphenoxy)ethyl)-5-((R)-1-hydroxyethyl)-3,10-diazabicyclo[4.3.1]decan-2-one]	≤ 100	≤ 100
C=C[C@@H]1CN(CCCCOC)C(=O)[C@@H]2CCC[C@H]1N2S(=O)(=O)c1cc(Cl)cc(Cl)c1 [Compound J3, (1S,5R,6R)-10-((3,5-dichlorophenyl)sulfonyl)-3-(4-methoxybutyl)-5-vinyl-3,10-diazabicyclo[4.3.1]decan-2-one]	500 to 1000	500 to 1000
C=CC1CN(Cc2ccccn2)C(=O)C2CCCC1N2S(=O)(=O)c1ccc(OC)c(Cl)c1 (stereo in doubt) [Compound K10, (1S,5R,6R)-10-((3-chloro-4-methoxyphenyl)sulfonyl)-3-(pyridin-2-ylmethyl)-5-vinyl-3,10-diazabicyclo[4.3.1]decan-2-one]	100 to 500	100 to 500
CCOC[C@H]1CN(Cc2ccccn2)C(=O)[C@@H]2CCC[C@H]1N2S(=O)(=O)c1cc(Cl)cc(Cl)c1 [Compound M6, (1S,5S,6R)-10-((3,5-dichlorophenyl)sulfonyl)-5-(ethoxymethyl)-3-(pyridin-2-ylmethyl)-3,10-diazabicyclo[4.3.1]decan-2-one]	≤ 100	≤ 100
